Source: paper PMC8586700 (Frontiers in Pharmacology, 2021)
Where two headings read alike, the source gives them in different places.

Key:
[1] = Stability experiment in plasma and brain homogenate samples; type: in vitro ADME, SD rats
Method: Three blank samples of plasma and brain homogenate of SD rats were added into the mixed standard solution. The stability experiment included placing at room temperature for 12 h, repeatedly freeze-thaw for three times and frozen for 15 days.

[2] = Pharmacokinetic experiment, single intragastric administration, plasma by HPLC-UV; type: in vivo, SD rats; details: for AUC / Cmax / half-life / Tmax / concentration at 40 min / concentration at 60 min / concentration at 90 min / concentration at 150 min / concentration at 210 min: SD (Sprague-Dawley); for AUC / Cmax / half-life / Tmax / concentration at 40 min / concentration at 60 min / concentration at 90 min / concentration at 150 min / concentration at 210 min / concentration at 20 min / concentration at 270 min / concentration at 330 min: rat, plasma, po; for AUC / Cmax / half-life / Tmax: 200 mg/kg; for AUC: read-out: AUC(0-tn) of DHC (converted); for Cmax: read-out: Cmax of DHC; for half-life: read-out: T1/2 of DHC; for Tmax: read-out: Tmax of DHC (converted); for concentration at 40 min / concentration at 60 min / concentration at 90 min / concentration at 150 min / concentration at 210 min / concentration at 20 min / concentration at 270 min / concentration at 330 min: read-out: Mean concentrations ±sd, DHC; for concentration at 20 min / concentration at 270 min / concentration at 330 min: SD
Method: An Agilent 1200 HPLC system was used. […] The flow rate was set at 1 ml min^−1 and detection wavelength was 420, 340 and 323 nm. Injection volume was 5 μL. The column temperature was set at 30°C.
(§1) Plasma or brain homogenate of SD rats was taken 50 μL, internal standard solution of 50 μL and protein precipitator of 150 μL were added. After eddy oscillation for 3 min, supernatant was separated by centrifugation.
Blood samples were collected from tail vein at 20 min, 40 min, 1, 1.5, 2.5, 3.5, 4.5, and 5.5 h after intragastric administration.
(§2) Plasma was collected by centrifugation of blood at 3000 RPM for 10min, and stored at -80 °C. Brain tissue of SD rat was dissected, weighed and added with normal saline at a volume of 2 ml g^−1. After homogenating brain tissue for 3 min by a homogenizer at 14,000 RPM, the supernatant was collected after centrifugation at 12,000 RPM for 10 min.

[3] = Repeated administration, drug concentrations of plasma and brain; type: in vivo, SD rats; details: for Mean concentrations±sd, DHC in plasma after multiple doses: loading dose then half doses for four consecutive days
Method: as §1
The concentration of drugs in plasma and brain homogenate after repeated administration was determined according to the same grouping and administration method. The loading dose of 200 mg kg^−1 was given for the first time and half doses for four consecutive days.
as §2

[4] = Group A: CUR 200 mg kg^−1 oral alone
[5] = Group B: CUR 200 mg kg^−1 and PIP 150 mg kg^−1 oral
[6] = Group C: CUR 200 mg kg^−1 and ILE 150 mg kg^−1 oral
[7] = Group A (CUR 200 mg kg^−1 oral alone)
[8] = Group B (CUR 200 mg kg^−1 and PIP 150 mg kg^−1 oral)
[9] = Group C (CUR 200 mg kg^−1 and ILE 150 mg kg^−1 oral)
[10] = combined CUR and ILE compared with CUR alone
[11] = combined CUR and ILE compared with combined administration with PIP
[12] = combined CUR and PIP compared with single CUR administration

In the case of COc1cc(/C=C/C(=O)CC(=O)CCc2ccc(O)c(OC)c2)ccc1O [DHC, Dihydrocurcumin], the “Recoveries after repeated freezing-thawing for three times” value ([1]; plasma) is reported as “over 100%”, the “Recoveries after being kept at room temperature for 12 h” value ([1]; plasma samples) is reported as “less than 30%” and the “CL of DHC” value [2, 4] is reported as 233.2 ± 7.8 mL/min. The “Vd of DHC” value [2, 4] was 9,087.6 ± 302.9 mL, the “CL of DHC” value [2, 5] was 70.0 ± 3.3 mL/min and the “Vd of DHC” value [2, 5] was 2,802.6 ± 133.4 mL. The “CL of DHC” value [2, 6] was 52.7 ± 2.3 mL/min, the “Vd of DHC” value [2, 6] was 3,751.4 ± 165.6 mL and the AUC [2, 4] was 7.61 µg·h/mL. For the same compound, the Cmax [2, 4] was 6.1 ± 3.2 µg/mL, the half-life [2, 4] was 24.8 ± 9.3 min and the Tmax [2, 4] was 26 min. For the same compound, the AUC [2, 5] was 7.06 µg·h/mL, the Cmax [2, 5] was 7.5 ± 1.1 µg/mL and the half-life [2, 5] was 25.4 ± 6.3 min. For the same compound, the Tmax [2, 5] was 22 min, the AUC [2, 6] was 16.8 µg·h/mL and the Cmax [2, 6] was 9.2 ± 2.4 µg/mL. For the same compound, the half-life [2, 6] was 114 ± 31.2 min, the Tmax [2, 6] was 18 min and the concentration at 40 min [2, 7] was 3.5 ± 0.9 µg/mL. The concentration at 60 min [2, 7] was 1.8 ± 0.5 µg/mL, the concentration at 90 min [2, 7] was 1.4 ± 0.5 µg/mL and the concentration at 150 min [2, 7] was 1.2 ± 0.7 µg/mL. It also gave a concentration at 210 min [2, 7] of 1.1 ± 0.3 µg/mL, a concentration at 40 min [2, 8] of 4 ± 0.6 µg/mL and a concentration at 60 min [2, 8] of 2.6 ± 0.5 µg/mL. It also gave a concentration at 90 min [2, 8] of 2 ± 0.4 µg/mL, a concentration at 150 min [2, 8] of 1 ± 0.3 µg/mL and a concentration at 210 min [2, 8] of 0.6 ± 0.2 µg/mL. It also gave a concentration at 40 min [2, 9] of 6.3 ± 0.7 µg/mL, a concentration at 60 min [2, 9] of 4.8 ± 0.7 µg/mL and a concentration at 90 min [2, 9] of 4 ± 1.2 µg/mL. It also gave a concentration at 150 min [2, 9] of 3.8 ± 0.7 µg/mL, a concentration at 210 min [2, 9] of 2.6 ± 0.1 µg/mL and a concentration at 20 min [2, 7] of 6.1 ± 3.2 µg/mL. It also gave a concentration at 270 min [2, 7] of 0.9 ± 0.4 µg/mL, a concentration at 330 min [2, 7] of 0.8 ± 0.4 µg/mL and a concentration at 20 min [2, 8] of 7.5 ± 1.1 µg/mL. For the same compound, the concentration at 270 min [2, 8] was 0.25 ± 0.03 µg/mL, the concentration at 330 min [2, 8] was 0.15 ± 0.03 µg/mL and the concentration at 20 min [2, 9] was 9.2 ± 2.4 µg/mL. For the same compound, the concentration at 270 min [2, 9] was 1.4 ± 0.7 µg/mL, the concentration at 330 min [2, 9] was 0.6 ± 0.2 µg/mL and the “AUC(0-tn) of DHC increased by” value [2, 10] was 1.2 times. For the same compound, the “CL of DHC reduced by” value [2, 10] was 77.4%, the “Cmax of DHC increased by” value [2, 10] was 50.8% and the “T1/2 of DHC increased by” value [2, 10] was 3.6 times. The “Tmax of DHC decreased by” value [2, 10] was 30.8%, the “Vd of DHC reduced by” value [2, 10] was 58.6% and the “Vd of DHC increased by” value ([2]; combined CUR and ILE compared with CUR and PIP combined) was 34%. The “CL of DHC reduced by” value ([2]; combined CUR and ILE compared with CUR combined with PIP) was 24.6%, the “AUC(0-tn) of DHC increased by” value [2, 11] was 1.4 times and the “Cmax of DHC increased by” value [2, 11] was 22.7%. For the same compound, the “T1/2 of DHC increased by” value [2, 11] was 3.5 times, the “Tmax of DHC decreased by” value [2, 11] was 18.2% and the “AUC(0-tn) of DHC decreased by” value [2, 12] was 7.2%. For the same compound, the “CL of DHC decreased by” value [2, 12] was 70%, the “Cmax of DHC increased by” value [2, 12] was 23% and the “Tmax of DHC decreased by” value [2, 12] was 15.4%. The “Vd of DHC decreased by” value [2, 12] was 69.2%, the “Mean concentrations±sd, DHC in plasma after multiple doses” value (shortened to “Mean concentrations±sd, DHC in plasma”) ([3]; Group I: CUR) was 1.4 ± 0.6 µg/mL and the “Mean concentrations±sd, DHC in plasma” value ([3]; Group II: CUR and PIP) was 4.6 ± 1.8 µg/mL. The “Mean concentrations±sd, DHC in plasma” value ([3]; Group III: CUR and ILE) was 8.7 ± 2.5 µg/mL and the “Detection in brain tissue” value ([3]; after repeated administration) was “could not be detected”.
